Measured values published in patent US20100239563A1 (priority 2001, published 2010).

Legend:
[1] = tested on: influenza A virus A/WSN-HK (H3N1); type: cell-based
[2] = tested on: influenza B virus strain Massachusetts/6/93

| Compound | titer of infectious virus particles over infection sequences [1] | reduction of the number of newly formed infectious influenza B virus particles [2] |
| --- | --- | --- |
| N#CC(=C(N)Sc1ccccc1N)C(C#N)=C(N)Sc1ccccc1N [U0126, 1,4-diamino-2,3-dicyano-1,4-bis(2-aminophenylthio)butadiene] | significant reduction of the influenza virus particles | approx. 90% |
| NC12CC3CC(CC(C3)C1)C2 [amantadine, 1-adamantanamine] | increased, in spite of the amantadine treatment | – |
